“Also recorded” adds a separate entry of the source. Read-outs that look alike come from different tables or passages of the source.
Columns and labels:
Type in all cases: cell-based, human
CEM cells = experiment: Trypan blue cell viability assay, DEM-treated cells; conditions: for EC50: CEM cells, pre-treatment 2 h, diethylmaleate 3 h, trypan blue exclusion, read-out: EC50 (effective concentration that prevents 50% of cell death); for maintaining cell viability (trypan blue exclusion): overnight incubation, then 5 mM DEM, 3 h
Description: Cell viability determined by trypan blue exclusion assay: This technique was used to assess the cytoprotective effects of the invention compounds in cultured cells pharmacologically treated to induce cell death by GSH depletion. DEM was used to deplete cellular GSH and induce oxidative stress. The viability of DEM-treated CEM cells was determined by their ability to exclude the dye trypan blue. Viable cells exclude trypan blue; whereas, non-viable cells take up the dye and stain blue. Briefly, CEM cells were grown in RPMI 1640 medium (GIBCO, Grand island, N.Y., USA) supplemented with 10% fetal calf serum, 2 mM glutamine (HyClone, South Logan, Utah, USA), 1% penicillin-streptomycin mix (Cellgro, Manassan, Va., USA). Cells were seeded at a density of 1×10^6 cells/mL and treated with different concentrations of the invention compounds. Cells were incubated at 37° C. in a humidified atmosphere of 5% CO2 in air for three hours with 5 mM DEM. Cell viability was determined by staining cells with 0.4% trypan blue using a hemacytometer. At least 500 cells were counted for each experimental group. At the time of assay, >95% of DEM-treated cells were trypan blue positive; whereas, in non-DEM treated control cell cultures >95% cells were viable. Cell viability was expressed as the percentage of control. Data are expressed as means±S.E.M (n=3).

FRDA fibroblasts = experiment: Calcein-AM cell viability assay, BSO-treated FRDA fibroblasts; conditions: for protection of FRDA fibroblasts from oxidative damage (cell viability): BSO-treated FRDA fibroblast; for EC50: BSO-treated FRDA fibroblasts, calcein-AM fluorescence, read-out: EC50 (effective concentration that prevents 50% of cell death)
Description: A cell viability assay using the dye calcein acetoxymethyl (AM) was used to determine the effects of invention compounds on GSH-mediated cell death in primary FRDA patient derived fibroblasts (Jauslin et al. (2002) Human Molecular Genetics. 11, 3055-3063) FRDA fibroblasts were treated with L-buthionine (S,R)-sulfoximine (BSO) to inhibit de novo synthesis of GSH (Griffith et al. (1979) J. Biol. Chem. 254, 7558-7560) causing oxidative stress, plasma membrane damage and cell death. Fibroblasts from Friedreich Ataxia patients, but not control cells, die after GSH depletion on incubation with BSO (Jauslin et al. (2002) Human Molecular Genetics. 11, 3055-3063). Cell viability was determined using calcein-AM (Molecular Probe, Eugene, Oreg.). In live cells, non-fluorescent calcein AM is hydrolyzed by intracellular esterases to produce the strongly green fluorescent anion calcein.
Cell culture and reagents: Primary fibroblasts were derived from a patient donor with a molecular diagnosis of FRDA and control donor with no mitochondrial disease. These cell lines were obtained from Coriell Cell Repositories (Camden, N.J., USA; catalog numbers GM04078 and GM08402, respectively). Fibroblasts were cultured in 64% (v/v) Eagle's Minimal Essential Medium (MEM), no phenol red with Eagle's balanced salt (EBS) and 25% M199 with EBS (GIBCO, Grand island, N.Y., USA) supplemented with 10% (v/v) Fetal Calf Serum (HyClone, South Logan, Utah, USA), 1% penicillin-streptomycin mix antibiotics (Cellgro, Manassan, Va., USA), 10 ng/mL insulin (Sigma, St. Louis, Mo., USA), 10 ng/mL basic fibroblast growth factor βFGF (Lonza, Walkersville, Md., USA) and 2 mM glutamine (HyClone, South Logan, Utah, USA). BSO (L-buthionine (S,R)-sulfoximine) and (+)-alpha-tocopherol were purchased from Sigma Chemicals and calcein AM was purchased from Molecular Probes. Cell were grown in 75 cm^2 culture flasks (T75) and incubated at 37° C. in a humidified atmosphere of 5% CO2 in air. Cells were fed twice a week and split every third day at a ratio of 1:3 upon reaching confluency. The invention compounds and reduced and oxidized forms of idebenone and alpha-tocopherol were reconstituted in DMSO or ethanol to provide 2.5 mM stock solutions.
Intervention compounds were screened according to the previous protocol (Jauslin et al. (2002) Human Molecular Genetics. 11, 3055-3063): Fibroblasts were seeded in 96 well microtiter black-walled cell culture plates (Costar, Corning, N.Y., USA) at a density of 3000 cells per well (100 μL). The plates were incubated overnight at 37° C. in a humidified atmosphere of 5% CO2 in air to allow attachment of the cells to the culture plate. Serial dilutions of intervention and references compounds were made from their respective stock solutions to give a total volume of 150 μL in each well. Plates were incubated overnight in cell culture. The following day, 50 μL of a 4 mM BSO solution (in culture media) was added to each well to provide a final BSO concentration of 1 mM. Cell viability was assessed after first signs of toxicity appeared in BSO-treated cells (typically after 24-30 hours) by examining cultures under phase-contrast microscopy. The cell culture medium was discarded by aspiration and each well of the cell culture plate washed with pre-warmed HSSB to remove serum esterase activity. Cells were then treated in with 200 μL of 1.2 μM calcein-AM in HSSB for 60 min at 37° C. in the dark to allow the dye to enter the cell and be cleaved by esterases. The negative control/background was 200 μL of HSSB buffer. Fluorescence intensities were measured with a Spectramax M5 spectrofluorometer (Molecular Devices, Sunnyvale, Calif., USA) using excitation and emission of 485 nm and 525 nm respectively. The intervention compounds were assayed in triplicate. […] The viability of non-BSO treated fibroblasts was set as 100%, and the viability of the BSO-treated and sample-treated cells was calculated relative to this value. […]

CEM leukemia cells = experiment: Mitochondrial membrane potential (Δψm) assay, TMRM, FACS; conditions: for preserving mitochondrial membrane potential Δψm: 1, 2.5 or 5 μM
Description: Measurement of Mitochondrial Membrane Potential (Δψm)(FACS). For the determination of Δψm, CEM leukemia cells were pre-treated with or without the test compounds. The cells were treated with 5 mM DEM for 120 minutes, collected by centrifugation at 300×g for 3 minutes and then washed twice with phosphate buffered saline. The cells were re-suspended in HSSB buffer and incubated at 37° C. in the dark for 15 minutes with 250 nM TMRM (a cationic dye which accumulates within mitochondria in accordance with the Δψm Nernst potential). Cells were collected by centrifugation at 300×g for 3 minutes and then washed twice with phosphate buffered saline. The samples were analyzed immediately by flow cytometry using 488 nm excitation laser and the FL2-H channel. The results obtained were verified in three independent experiments. The protonophore FCCP (30 μM) was used to dissipate the chemiosmotic proton gradient (ΔμH^+) and served as a control for loss of Δψm. In each analysis, 10,000 events were recorded.

[1] = pretreatment 0.5, 1 or 2.5 μM overnight, DEM

Compound | EC50 (CEM cells) [nM] | EC50 (CEM cells; Homo sapiens, CCRF-CEM) [nM] | maintaining cell viability (trypan blue exclusion) (CEM cells) | protection of FRDA fibroblasts from oxidative damage (cell viability) (FRDA fibroblasts) | EC50 (FRDA fibroblasts; Homo sapiens, Fibroblast) [nM] | maintaining mitochondrial membrane potential Δψm (CEM leukemia cells; [1]) | preserving mitochondrial membrane potential Δψm (CEM leukemia cells; 4-hour pretreatment) | preserving mitochondrial membrane potential Δψm (CEM leukemia cells; 24-hour pretreatment) | maintaining mitochondrial membrane potential Δψm (CEM leukemia cells; FIG. 13, 4 or 24 hours pretreatment) | EC50 (FRDA fibroblasts) [nM]
Cc1nc(N(C)C)nc(CCCCCCCCCCO)c1O [Compound A, 2-N,N-dimethylamino-5-hydroxy-4-methyl-6-(10-hydroxydecyl)-pyrimidine] | 202 ± 23 | 203 ± 23 | quite effective in maintaining cell viability following DEM treatment; also recorded: superior to idebenone in maintaining the viability of DEM-treated cells | more effective than idebenone | 390 ± 28 | clearly more effective in maintaining mitochondrial membrane potential; also recorded: very favorable properties | – | – | – | –
COC1=C(OC)C(=O)C(CCCCCCCCCCO)=C(C)C1=O [idebenone, reference compound] | – | 765 ± 36 | – | – | 710 ± 80 | less effective in this regard | – | – | – | –
Cc1nc2c(c(CC[C@](C)(O)CCC[C@H](C)CCC[C@H](C)CCCC(C)C)c1O)CCN2C [Compound C, 4-((3R,7R,11R)-3-hydroxy-3,7,11,15-tetramethylhexadecyl)-1,6-dimethyl-2,3-dihydro-1H-pyrrolo[2,3-b]pyridine-5-ol] | – | – | both effective in maintaining cell viability following treatment with DEM, with compound C being somewhat more effective; also recorded: superiority of compound C | slightly more effective than α-tocopherol | 833 ± 75 | – | more effective than tocopherol in preserving mitochondrial membrane potential | comparable to tocopherol | superior to tocopherol in maintaining mitochondrial membrane potential | –
Cc1c(C)c2c(c(C)c1O)CC[C@@](C)(CCC[C@H](C)CCC[C@H](C)CCCC(C)C)O2 [α-tocopherol, reference compound] | – | – | effective in maintaining cell viability following treatment with DEM | – | – | – | – | – | – | 1030 ± 116

Source: patent publication US8952025B2, “Multifunctional radical quenchers and their uses” (Arizona Board of Regents, A Body Corporate of the State of …, priority 2010, dated 2015)
